From paper PMC11183015, “In vivo stable ^211At-labeled prostate-specific membrane antigen-targeted tracer using a neopentyl glycol structure” (EJNMMI Radiopharmacy and Chemistry, 2024)
Marks after values point to notes of the source that are not given here.

Legend:
[1] = Lipophilicity (log D7.4), 1-octanol/PBS pH 7.4; type: physicochemical
Description: [^125I]I-NpG-D-PSMA (3.7 kBq) was mixed with equal amounts (3.0 mL) of 1-octanol and PBS buffer (pH 7.4). The mixture was vortexed for 1 min and allowed to stand for 1 min. After repeating the procedure five times, the mixture was centrifuged at 1,500 g (3740, Kubota, Tokyo) for 10 min. Samples (0.2-2 mL) were taken from each phase and their radioactivity was measured with an auto-well γ-counter. The partition coefficient was determined by calculating the ratio of the counts per minute in the 1-octanol phase to that in the buffer phase and expressed as common logarithm. The results represent the mean of three measurements.

[2] = Biodistribution of radioactivity in normal mice; type: in vivo, mouse
Description: Six-week-old male ddY mice were injected via the tail vein with each radiolabeled PSMA derivative. Animals were sacrificed and the organs were dissected at 10 min, 1 h, 3 h, and 6 h after injection. Metabolic cages were used for housing normal mice. The tissues of interest were excised and weighed, and the radioactivity counts in each tissue were determined using an auto-well gamma counter. Each value was expressed as the mean percent injected dose/g tissue ± SD for a group of 3–5 animals, except those for the stomach, intestine, and thyroid.

[3] = Analysis of radiometabolites in urine by RP-HPLC; type: in vivo, mouse; details: normal ddY mice, urine up to 6 h after injection
Description: Urine samples were collected from 6-week-old ddY mice 6 h after injection of each ^125I-labeled PSMA derivative (100 µL, 370 kBq). After ethanol precipitation of proteins, the urine samples were filtered through a polycarbonate membrane (0.45 µm) and analyzed by RP-HPLC (System 2).

[4] = test system: LNCaP cell xenografts; assay: Biodistribution of radioactivity in tumor-bearing mice; type: in vivo, mouse; details: for Radioactivity in Intestine / Radioactivity in Neck / Radioactivity in Stomach: LNCaP tumor-bearing BALB/c-nu/nu mice; for Radioactivity in Blood / Radioactivity in Bone / Radioactivity in Heart / Radioactivity in Kidney / Radioactivity in Liver / Radioactivity in Lung / Radioactivity in Muscle / Radioactivity in Pancreas / Radioactivity in Spleen / Radioactivity in Tumor: male, BALB/c-nu/nu, mouse, in vivo
Description: Animal studies were conducted in accordance with the institutional guidelines approved by the Chiba University Animal Care Committee (Permit No. 4–183). Five-week-old male ddY mice and BALB/c-nu/nu mice were purchased from Japan SLC Inc. (Hamamatsu, Japan). LNCaP cells (5.0 × 10^6 cells) were suspended in 100 μL of PBS and Matrigel (BD Biosciences, Franklin Lakes, NJ, USA) in a 1:1 ratio. Tumor xenograft models were prepared via subcutaneous injection of this LNCaP cell suspension into BALB/c nude mice.
(§1) Biodistribution studies were conducted using male BALB/c-nu/nu mice bearing LNCaP cell xenografts at 1 and 3 h postinjection of [^211At]At-NpG-D-PSMA (100 µL, 37 kBq) and 1 and 6 h postinjection of ^125I-labeled PSMA derivative (100 µL, 11.1 kBq). In the blocking study, [^125I]I-NpG-D-PSMA was coinjected with 2-PMPA (50 mg/kg weight) into tumor-bearing mice via the tail vein. At 1 h postinjection, the mice were sacrificed. The tissues of interest were excised and weighed, and the radioactivity counts in each tissue were determined using an auto-well gamma counter. Each value was expressed as the mean percent injected dose/g tissue ± SD for a group of 3–5 animals, except those for the stomach, intestine, and thyroid.

[5] = molecular target: PSMA (Homo sapiens, UniProt Q04609); assay: Blocking study with 2-PMPA in tumor-bearing mice; type: in vivo, mouse; set-up: Tumor accumulation of [^125I]I-NpG-D-PSMA with or without 2-PMPA; from tissue; host or cells: LNCaP xenograft tumor in male BALB/c-nu/nu mice; details: LNCaP tumor-bearing mice, 2-PMPA 50 mg/kg coinjected, 1 h
Description: as §1

[6] = normal ddY mice, i.v., 6 h, metabolic cages

Sequence of PSMA (Q04609 whole entry): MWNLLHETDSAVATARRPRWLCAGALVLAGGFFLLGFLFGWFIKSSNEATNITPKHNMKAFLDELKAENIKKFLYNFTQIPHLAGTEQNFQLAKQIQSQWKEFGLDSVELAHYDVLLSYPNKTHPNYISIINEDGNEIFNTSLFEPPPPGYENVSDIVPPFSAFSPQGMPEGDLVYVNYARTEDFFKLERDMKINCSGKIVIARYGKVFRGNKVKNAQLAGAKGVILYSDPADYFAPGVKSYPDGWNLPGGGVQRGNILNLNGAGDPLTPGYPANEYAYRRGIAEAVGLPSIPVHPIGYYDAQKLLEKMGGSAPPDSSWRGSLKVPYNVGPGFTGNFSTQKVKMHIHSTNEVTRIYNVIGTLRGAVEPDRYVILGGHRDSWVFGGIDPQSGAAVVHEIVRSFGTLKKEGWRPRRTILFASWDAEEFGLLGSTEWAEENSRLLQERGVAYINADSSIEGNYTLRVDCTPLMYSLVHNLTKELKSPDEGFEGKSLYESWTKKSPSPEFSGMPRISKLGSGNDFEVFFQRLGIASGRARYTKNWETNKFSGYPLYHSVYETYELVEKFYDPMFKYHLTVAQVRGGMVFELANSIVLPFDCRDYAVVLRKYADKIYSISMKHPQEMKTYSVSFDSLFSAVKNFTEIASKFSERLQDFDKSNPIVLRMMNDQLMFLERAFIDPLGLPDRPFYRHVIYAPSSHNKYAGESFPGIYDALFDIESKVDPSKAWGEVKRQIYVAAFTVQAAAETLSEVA

## O=C(O)CCC(NC(=O)NC(CCCCNC(=O)C(Cc1ccc2ccccc2c1)NC(=O)C(CCC(=O)O)NC(=O)C(CCC(=O)O)NC(=O)COCC(CO)(CO)C[125I])C(=O)O)C(=O)O [[^125I]I-NpG-D-PSMA] [listing 1 of 2 here]
[1]
  logD: -3.14 ± 0.03

## O=C(O)CCC(NC(=O)NC(CCCCNC(=O)C(Cc1ccc2ccccc2c1)NC(=O)C(CCC(=O)O)NC(=O)C(CCC(=O)O)NC(=O)COCC(CO)(CO)C[125I])C(=O)O)C(=O)O [[^125I]I-NpG-D-PSMA] [listing 2 of 2 here]
[2]; normal ddY mice, i.v., 10 min
  Radioactivity in Blood: 1.31 ± 0.10^c %ID/g
  Radioactivity in Bone: 0.71 ± 0.07^c %ID/g
  Radioactivity in Heart: 0.76 ± 0.08^c %ID/g
  Radioactivity in Intestine: 2.76 ± 0.02^c %ID
  Radioactivity in Kidney: 58.5 ± 2.27^c %ID/g
  Radioactivity in Liver: 0.83 ± 0.12^c %ID/g
  Radioactivity in Lung: 2.11 ± 0.16^c %ID/g
  Radioactivity in Muscle: 0.47 ± 0.07^c %ID/g
  Radioactivity in Neck: 0.48 ± 0.06^c %ID
  Radioactivity in Pancreas: 0.63 ± 0.15^c %ID/g
  Radioactivity in Spleen: 2.09 ± 0.83 %ID/g
  Radioactivity in Stomach: 0.28 ± 0.06 %ID
[2]; normal ddY mice, i.v., 1 h
  Radioactivity in Blood: 0.18 ±0.02 %ID/g
  Radioactivity in Bone: 0.30 ± 0.25 %ID/g
  Radioactivity in Heart: 0.14 ± 0.7 %ID/g
  Radioactivity in Intestine: 2.97 ± 0.24^c %ID
  Radioactivity in Kidney: 74.6 ± 14.9^c %ID/g
  Radioactivity in Liver: 0.17 ± 0.07 %ID/g
  Radioactivity in Lung: 0.38 ± 0.06 %ID/g
  Radioactivity in Muscle: 0.11 ± 0.08 %ID/g
  Radioactivity in Neck: 0.11 ± 0.03^c %ID
  Radioactivity in Spleen: 0.20 ± 0.01 %ID/g
  Radioactivity in Stomach: 0.18 ± 0.00 %ID
[2]; normal ddY mice, i.v., 3 h
  Radioactivity in Blood: 0.04 ± 0.02 %ID/g
  Radioactivity in Bone: 0.21 ± 0.28 %ID/g
  Radioactivity in Heart: 0.05 ± 0.04 %ID/g
  Radioactivity in Intestine: 3.30 ± 0.08^c %ID
  Radioactivity in Kidney: 22.9 ± 16.5 %ID/g
  Radioactivity in Liver: 0.05 ± 0.03 %ID/g
  Radioactivity in Lung: 0.12 ± 0.05 %ID/g
  Radioactivity in Muscle: 0.05 ± 0.03 %ID/g
  Radioactivity in Neck: 0.03 ± 0.02^c %ID
  Radioactivity in Pancreas: 0.20 ± 0.31 %ID/g
  Radioactivity in Spleen: 0.07 ± 0.05 %ID/g
  Radioactivity in Stomach: 0.27 ± 0.10^c %ID
[2]; normal ddY mice, i.v., 6 h
  Radioactivity in Blood: 0.03 ± 0.01 %ID/g
  Radioactivity in Bone: 0.16 ± 0.17 %ID/g
  Radioactivity in Heart: 0.03 ± 0.01 %ID/g
  Radioactivity in Intestine: 6.19 ± 4.27 %ID
  Radioactivity in Kidney: 17.5 ± 5.43^c %ID/g
  Radioactivity in Liver: 0.05 ±0.03 %ID/g
  Radioactivity in Lung: 0.08 ± 0.00^c %ID/g
  Radioactivity in Muscle: 0.06 ± 0.07 %ID/g
  Radioactivity in Neck: 0.07 ± 0.09 %ID
  Radioactivity in Pancreas: 0.09 ± 0.12 %ID/g
  Radioactivity in Spleen: 0.05 ± 0.05 %ID/g
  Radioactivity in Stomach: 0.86 ± 0.65 %ID
[2]; [6]
  Radioactivity in Feces: 0.66 ± 0.50 %ID
  Radioactivity in Urine: 30.7 ± 2.85^c %ID
[2]; normal mice
  Accumulation in the stomach and thyroid (stability against deiodination): low accumulation
[3]
  Form of radioactivity excreted in urine: only intact [^125I]I-NpG-D-PSMA
[4]; 1 h
  Radioactivity in Intestine: 1.66 ± 0.29 %ID
  Radioactivity in Neck: 0.77 ± 0.17 %ID
  Radioactivity in Stomach: 0.19 ± 0.04 %ID
  Radioactivity in Blood: 0.64 ± 0.04 %ID/g
  Radioactivity in Bone: 0.25 ± 0.02 %ID/g
  Radioactivity in Heart: 0.89 ± 0.09 %ID/g
  Radioactivity in Kidney: 275 ± 17.6 %ID/g
  Radioactivity in Liver: 0.79 ± 0.06 %ID/g
  Radioactivity in Lung: 2.80 ± 0.09 %ID/g
  Radioactivity in Muscle: 0.27 ± 0.05 %ID/g
  Radioactivity in Pancreas: 0.84 ± 0.25 %ID/g
  Radioactivity in Spleen: 30.5 ± 7.49 %ID/g
  Radioactivity in Tumor: 20.4 ± 6.92 %ID/g
[4]; 6 h
  Radioactivity in Intestine: 1.51 ± 0.61 %ID
  Radioactivity in Neck: 0.10 ± 0.01 %ID
  Radioactivity in Stomach: 0.17 ± 0.10 %ID
  Radioactivity in Blood: 0.06 ± 0.03 %ID/g
  Radioactivity in Bone: 0.07 ± 0.02 %ID/g
  Radioactivity in Heart: 0.10 ± 0.04 %ID/g
  Radioactivity in Kidney: 160 ± 89.9 %ID/g
  Radioactivity in Liver: 0.07 ± 0.03 %ID/g
  Radioactivity in Lung: 0.22 ± 0.09 %ID/g
  Radioactivity in Muscle: 0.07 ± 0.04 %ID/g
  Radioactivity in Pancreas: 0.12 ± 0.05 %ID/g
  Radioactivity in Spleen: 1.55 ± 0.75 %ID/g
  Radioactivity in Tumor: 20.8 ± 6.84 %ID/g
[5]
  Accumulation in the tumor and spleen with coinjected 2-PMPA: inhibited by 2-PMPA
